In US8158792B2, “Spiropiperidines for use as tryptase inhibitors” (Janssen Pharmaceutica N.V., priority 2007, dated 2012) one finds IC50 data, which are given here for 34 compounds.

In the assay the target is human lung tryptase. Briefly: β-Tryptase In-Vitro Enzyme Assay. The assay is classed as biochemical. As to conditions: human lung tryptase 1 nM, substrate H-D-HHT-Ala-Arg-pNa 500 μM, pH 7.4, room temperature. How it is done:
The β-tryptase assay was conducted with human lung tryptase (Cortex Biochem #CP3033) in an aqueous buffer (10 mM Tris, 10 mM Hepes, 150 mM NaCl, 0.1% PEG 8000, pH 7.4) using the chromogenic substrate H-D-HHT-Ala-Arg-pNa. […] Percent inhibition was calculated by comparing the initial reaction velocity of samples without inhibitor to those with inhibitor. The initial reaction velocities were analyzed using Microsoft Excel.

For orientation: IC50 means the concentration needed to halve the response being measured.

`NCc1ccc2c(c1)C1(CCN(C(=O)c3ccc(Oc4cc(Cl)cc(Cl)c4)o3)CC1)CO2` [Cpd 149, 1-[5-(3,5-dichloro-phenoxy)-furan-2-yl]carbonyl-5′-aminomethyl-spiro[piperidine-4,3′-(2H)-benzo[b]furan]] displayed an IC50 of 110 nM.
The same measure for `Cc1nn(-c2ccc(C(=O)N3CCC4(CC3)COc3ccc(CN)cc34)o2)c(C)c1Br` [Cpd 150, 1-[5-(3,5-dimethyl-4-bromo-pyrazol-1-yl)-furan-2-yl]carbonyl-5′-aminomethyl-spiro[piperidine-4,3′-(2H)-benzo[b]furan]]: 180 nM; for `NCc1ccc2c(c1)C1(CCN(C(=O)c3ccc(CSc4ccc(C(F)(F)F)cn4)o3)CC1)CO2` [Cpd 151, 1-[5-(5-trifluoromethyl-pyridin-2-ylthiomethyl)-furan-2-yl]carbonyl-5′-aminomethyl-spiro[piperidine-4,3′-(2H)-benzo[b]furan]]: 180 nM; for `NCc1ccc2c(c1)C1(CCN(C(=O)c3cc(C#Cc4ccccc4)ccn3)CC1)CO2` [Cpd 152, 1-[4-phenylethynyl-pyridin-2-yl]carbonyl-5′-aminomethyl-spiro[piperidine-4,3′-(2H)-benzo[b]furan]]: 2.3 nM.
The value for `Cc1ccccc1C#Cc1ccc(C(=O)N2CCC3(CC2)COc2ccc(CN)cc23)o1` [Cpd 153, 1-[5-(2-methyl-phenylethynyl)-furan-2-yl]carbonyl-5′-aminomethyl-spiro[piperidine-4,3′-(2H)-benzo[b]furan]] was 1.2 nM.
`NCc1ccc2c(c1)C1(CCN(C(=O)c3ccc(COc4ccc(F)cc4)o3)CC1)CO2` [Cpd 154, 1-[5-(4-fluoro-phenoxymethyl)-furan-2-yl]carbonyl-5′-aminomethyl-spiro[piperidine-4,3′-(2H)-benzo[b]furan]] displayed an IC50 of 260 nM.
As for `CSc1sc(C(=O)N2CCC3(CC2)COc2ccc(CN)cc23)c2c1C(=O)CCC2` [Cpd 155, 1-(3-methylthio-4-oxo-5,6,7-trihydro-4H-benzo[c]thien-1-yl)carbonyl-5′-aminomethyl-spiro[piperidine-4,3′-(2H)-benzo[b]furan]], inhibition was half-maximal at 12 nM (IC50).
The value for `Cc1cc(C(=O)NCc2ccc(C(=O)N3CCC4(CC3)COc3ccc(CN)cc34)o2)c(C)o1` [Cpd 156, 1-[5-(2,5-dimethyl-furan-3-yl-carbonylaminomethyl)-furan-2-yl]carbonyl-5′-aminomethyl-spiro[piperidine-4,3′-(2H)-benzo[b]furan]] was 130 nM.
The value for `CSc1sc(C(=O)N2CCC3(CC2)COc2ccc(CN)cc23)c(Cl)c1S(=O)(=O)C(C)C` [Cpd 157, 1-(3-chloro-4-isopropylsulfonyl-5-methylthio-thien-2-yl)carbonyl-5′-aminomethyl-spiro[piperidine-4,3′-(2H)-benzo[b]furan]] was 17 nM.
In turn, `NCc1ccc2c(c1)C1(CCN(Cc3ccc(Cl)c(Cl)c3)CC1)CO2` [Cpd 158, 1-(3,4-dichloro-benzyl)-5′-aminomethyl-spiro[piperidine-4,3′-(2H)-benzo[b]furan]] yielded an IC50 of 4500 nM.
In the case of `NCc1ccc2c(c1)C1(CCN(C(=O)c3cccs3)CC1)CO2` [Cpd 159, 1-thien-2-ylcarbonyl-5′-aminomethyl-spiro[piperidine-4,3′-(2H)-benzo[b]furan]], the IC50 was 210 nM.
The same measure for `NCc1ccc2c(c1)C1(CCN(C(=O)c3cc4ccccc4o3)CC1)CO2` [Cpd 160, 1-benzo[b]furan-2-ylcarbonyl-5′-aminomethyl-spiro[piperidine-4,3′-(2H)-benzo[b]furan]]: 210 nM; for `NCc1ccc2c(c1)C1(CCN(C(=O)/C=C/c3cccc(F)c3)CC1)CO2` [Cpd 161, (E)-1-(3-fluoro-phenylethenyl)carbonyl-5′-aminomethyl-spiro[piperidine-4,3′-(2H)-benzo[b]furan]]: 53 nM; for `NCc1ccc2c(c1)C1(CCN(C(=O)/C(F)=C/c3ccccc3)CC1)CO2` [Cpd 162, (Z)-1-(1-fluoro-2-phenylethenyl)carbonyl-5′-aminomethyl-spiro[piperidine-4,3′-(2H)-benzo[b]furan]]: 79 nM.
The value for `NCc1ccc2c(c1)C1(CCN(C(=O)c3cc4c(s3)CCCC4)CC1)CO2` [Cpd 163, 1-(5,6,7-trihydro-4H-benzo[b]thien-2-yl)carbonyl-5′-aminomethyl-spiro[piperidine-4,3′-(2H)-benzo[b]furan]] was 54 nM; that for `NCc1ccc2c(c1)C1(CCN(C(=O)/C=C/c3cccc(Cl)c3)CC1)CO2` [Cpd 164, (E)-1-(3-chloro-phenylethenyl)carbonyl-5′-aminomethyl-spiro[piperidine-4,3′-(2H)-benzo[b]furan]] was 140 nM; that for `NCc1ccc2c(c1)C1(CCN(C(=O)/C=C/c3ccc(Cl)cc3)CC1)CO2` [Cpd 165, (E)-1-(4-chloro-phenylethenyl)carbonyl-5′-aminomethyl-spiro[piperidine-4,3′-(2H)-benzo[b]furan]] was 380 nM.
The compound `NCc1ccc2c(c1)C1(CCN(C(=O)c3sc4ccccc4c3Cl)CC1)CO2` [Cpd 166, 1-(3-chloro-benzo[b]thien-2-yl)carbonyl-5′-aminomethyl-spiro[piperidine-4,3′-(2H)-benzo[b]furan]] displayed an IC50 of 71 nM.
In turn, `NCc1ccc2c(c1)C1(CCN(C(=O)/C=C/c3cccc(OC(F)(F)F)c3)CC1)CO2` [Cpd 167, (E)-1-(3-trifluoromethoxy-phenylethenyl)carbonyl-5′-aminomethyl-spiro[piperidine-4,3′-(2H)-benzo[b]furan]] had a half-inhibitory concentration (IC50) of 600 nM.
The same measure for `NCc1ccc2c(c1)C1(CCN(C(=O)c3cc4c(F)cccc4s3)CC1)CO2` [Cpd 168, 1-(4-fluoro-benzo[b]thien-2-yl)carbonyl-5′-aminomethyl-spiro[piperidine-4,3′-(2H)-benzo[b]furan]]: 48 nM; for `CS(=O)(=O)c1ccc(C(=O)N2CCC3(CC2)COc2ccc(CN)cc23)s1` [Cpd 169, 1-(5-methylsulfonyl-thien-2-yl)carbonyl-5′-aminomethyl-spiro[piperidine-4,3′-(2H)-benzo[b]furan]]: 1600 nM.
For the compound `Cc1ccc(C#Cc2ccc(C(=O)N3CCC4(CC3)COc3ccc(CN)cc34)o2)cc1` [Cpd 170, 1-[5-(4-methyl-phenylethynyl)-furan-2-yl]carbonyl-5′-aminomethyl-spiro[piperidine-4,3′-(2H)-benzo[b]furan]], inhibition was half-maximal at 8.3 nM (IC50).
Turning to `NCc1ccc2c(c1)C1(CCN(C(=O)c3sc4cc(F)ccc4c3Cl)CC1)CO2` [Cpd 171, 1-(3-chloro-6-fluoro-benzo[b]thien-2-yl)carbonyl-5′-aminomethyl-spiro[piperidine-4,3′-(2H)-benzo[b]furan]], the midpoint of inhibition, the IC50, lay at 170 nM.
The value for `Cc1ccc(C)c(C#Cc2ccc(C(=O)N3CCC4(CC3)COc3ccc(CN)cc34)o2)c1` [Cpd 172, 1-[5-(2,5-dimethyl-phenylethynyl)-furan-2-yl]carbonyl-5′-aminomethyl-spiro[piperidine-4,3′-(2H)-benzo[b]furan]] was 7.2 nM.
The value for `COc1ccccc1C#Cc1ccc(C(=O)N2CCC3(CC2)COc2ccc(CN)cc23)o1` [Cpd 173, 1-[5-(2-methoxy-phenylethynyl)-furan-2-yl]carbonyl-5′-aminomethyl-spiro[piperidine-4,3′-(2H)-benzo[b]furan]] was 13 nM.
As for `Cc1ccc(C)c(OCc2ccc(C(=O)N3CCC4(CC3)COc3ccc(CN)cc34)o2)c1` [Cpd 174, 1-[5-(2,5-dimethyl-phenoxymethyl)-furan-2-yl]carbonyl-5′-aminomethyl-spiro[piperidine-4,3′-(2H)-benzo[b]furan]], the IC50 was determined as 17 nM.
Regarding `NCc1ccc2c(c1)C1(CCN(C(=O)c3sc4cccc(Cl)c4c3Cl)CC1)CO2` [Cpd 175, 1-(3,4-dichloro-benzo[b]thien-2-yl)carbonyl-5′-aminomethyl-spiro[piperidine-4,3′-(2H)-benzo[b]furan]], the IC50 worked out at 58 nM.
The value for `NCc1ccc2c(c1)C1(CCN(C(=O)c3ccc(C#Cc4cc(F)cc(F)c4)o3)CC1)CO2` [Cpd 176, 1-[5-(3,5-difluoro-phenylethynyl)-furan-2-yl]carbonyl-5′-aminomethyl-spiro[piperidine-4,3′-(2H)-benzo[b]furan]] was 41 nM; that for `NCc1ccc2c(c1)C1(CCN(C(=O)c3ccc(C#Cc4cccc5ccccc45)o3)CC1)CO2` [Cpd 177, 1-(5-naphthalen-1-ylethynyl-furan-2-yl)carbonyl-5′-aminomethyl-spiro[piperidine-4,3′-(2H)-benzo[b]furan]] was 26 nM.
The value for `CC(C)(C)c1ccc(OCc2ccc(C(=O)N3CCC4(CC3)COc3ccc(CN)cc34)o2)cc1` [Cpd 178, 1-[5-(4-tert-butyl-phenoxymethyl)-furan-2-yl]carbonyl-5′-aminomethyl-spiro[piperidine-4,3′-(2H)-benzo[b]furan]] was 440 nM; that for `Cc1cccc(/C=C/C(=O)N2CCC3(CC2)COc2ccc(CN)cc23)c1` [Cpd 179, (E)-1-(3-methyl-phenylethenyl)carbonyl-5′-aminomethyl-spiro[piperidine-4,3′-(2H)-benzo[b]furan]] was 260 nM; that for `Cc1ccc(/C=C/C(=O)N2CCC3(CC2)COc2ccc(CN)cc23)cc1` [Cpd 180, (E)-1-(4-methyl-phenylethenyl)carbonyl-5′-aminomethyl-spiro[piperidine-4,3′-(2H)-benzo[b]furan]] was 780 nM.
The same measure for `C/C(=C/c1ccccc1)C(=O)N1CCC2(CC1)COc1ccc(CN)cc12` [Cpd 181, (Z)-1-(1-methyl-2-phenylethenyl)carbonyl-5′-aminomethyl-spiro[piperidine-4,3′-(2H)-benzo[b]furan]]: 1700 nM; for `NCc1ccc2c(c1)C1(CCN(C(=O)/C=C/c3ccc(F)cc3)CC1)CO2` [Cpd 182, (E)-1-(4-fluoro-phenylethenyl)carbonyl-5′-aminomethyl-spiro[piperidine-4,3′-(2H)-benzo[b]furan]]: 740 nM.
